Data published in ChEMBL document CHEMBL6096723, “Discovery of novel capsaicin analogs as TRPV1 inhibitors for the treatment of idiopathic pulmonary fibrosis” (Eur J Med Chem, 2025).
Active and inactive are the calls of the source. The rule behind the calls is not given here.

Legend:
NIH3T3 [1] = test: Inhibition of TGFbeta-induced Smad3 phosphorylation in mouse NIH3T3 cells by Western blot analysis; assay type: functional, cell-based; conditions: dose 1-10 µM
[2] = MRT(0 to t) in Sprague-Dawley rat at 50 mg/kg, ip measured upto 4 hrs by UPLC-MS/MS analysis; assay type: ADME, organism-based; conditions: in vivo
[3] = Apparent volume of distribution in Sprague-Dawley rat at 50 mg/kg, po measured upto 4 hrs by UPLC-MS/MS analysis; assay type: ADME, organism-based; conditions: in vivo
[4] = VRT(0 to t) in Sprague-Dawley rat at 50 mg/kg, po measured upto 4 hrs by UPLC-MS/MS analysis; assay type: ADME, organism-based; conditions: in vivo
Mus musculus [5] = test: Anti-pulmonary fibrotic activity against bleomycin-induced pulmonary fibrosis mouse model assessed as inhibition of Smad2 phosphorylation in lung tissue at 10 to 20 mg/kg, ip administered every alternative day for 8 to 21 days after modeling by immunohistochemical staining based assay; assay type: functional, organism-based; conditions: dose 10-20 mg/kg, time 8-21 day
[6] = Acute toxicity in Kunming mouse assessed as organ lesions in lung at 180 mg/kg, ip measured after 14 days by H and E staining based assay; assay type: organism-based; conditions: in vivo, 336 h, time 14 day
Mus musculus [7] = test: Anti-pulmonary fibrotic activity against bleomycin-induced pulmonary fibrosis mouse model assessed as inhibition of alpha-SMA expression in lung tissue at 10 to 20 mg/kg, ip administered every alternative day for 8 to 21 days after modeling by immunohistochemical staining based assay; assay type: functional, organism-based; conditions: dose 10-20 mg/kg, time 8-21 day
[8] = biological target: Transient receptor potential cation channel subfamily V member 1 (Mus musculus) (UniProt Q704Y3); test: Thermal stabilization of TRPV1 in mouse NIH3T3 cells assessed as reduction in TRPV1 degradation at 60 degreeC measured after 30 mins by CETSA; assay type: cell-based; conditions: dose 1-50 µM
[9] = MRT(0 to t) in Sprague-Dawley rat at 50 mg/kg, po measured upto 4 hrs by UPLC-MS/MS analysis; assay type: ADME, organism-based; conditions: in vivo
[10] = AUMC(0 to infinity) in Sprague-Dawley rat at 50 mg/kg, po measured upto 4 hrs by UPLC-MS/MS analysis; assay type: ADME, organism-based; conditions: in vivo
[11] = AUMC(0 to infinity) in Sprague-Dawley rat at 50 mg/kg, iv measured upto 4 hrs by UPLC-MS/MS analysis; assay type: ADME, organism-based; conditions: in vivo
Rattus norvegicus [12] = test: Zeta in Sprague-Dawley rat at 50 mg/kg, iv measured upto 4 hrs by UPLC-MS/MS analysis; assay type: ADME, organism-based; conditions: in vivo
[13] = Acute toxicity in Kunming male mouse assessed as Albumin (ALB) level at 180 mg/kg, ip measured after 14 days (reference value: 32.6 g/L); assay type: organism-based; conditions: in vivo, 336 h, time 14 day
Rattus norvegicus [14] = test: Zeta in Sprague-Dawley rat at 50 mg/kg, po measured upto 4 hrs by UPLC-MS/MS analysis; assay type: ADME, organism-based; conditions: in vivo
NIH3T3 [15] = test: Inhibition of TGFbeta-induced Smad2 phosphorylation in mouse NIH3T3 cells by Western blot analysis; assay type: functional, cell-based; conditions: dose 1-10 µM
[16] = AUC(0 to t) in Sprague-Dawley rat at 50 mg/kg, ip measured upto 4 hrs by UPLC-MS/MS analysis; assay type: ADME, organism-based; conditions: in vivo
[17] = Acute toxicity in Kunming female mouse assessed as Albumin (ALB) level at 180 mg/kg, ip measured after 14 days (reference value: 35.8 g/L); assay type: organism-based; conditions: in vivo, 336 h, time 14 day
[18] = Acute toxicity in Kunming female mouse assessed as Aspartate aminotransferase (AST) level at 180 mg/kg, ip measured after 14 days (reference value: 116.2 U/L); assay type: organism-based; conditions: in vivo, 336 h, time 14 day
[19] = AUC(0 to infinity) in Sprague-Dawley rat at 50 mg/kg, ip measured upto 4 hrs by UPLC-MS/MS analysis; assay type: ADME, organism-based; conditions: in vivo
Rattus norvegicus [20] = test: Cz in Sprague-Dawley rat at 50 mg/kg, po measured upto 4 hrs by UPLC-MS/MS analysis; assay type: ADME, organism-based; conditions: in vivo
[21] = Acute toxicity in Kunming male mouse assessed as Lactate dehydrogenase (LDH) level at 180 mg/kg, ip measured after 14 days (reference value: 1776.1 U/L); assay type: organism-based; conditions: in vivo, 336 h, time 14 day
[22] = biological target: Transient receptor potential cation channel subfamily V member 1 (Mus musculus) (UniProt Q704Y3); test: Thermal stabilization of TRPV1 in mouse NIH3T3 cells assessed as reduction in TRPV1 degradation at 10 uM at 40 to 65 degreeC measured after 30 mins by CETSA; assay type: cell-based
Rattus norvegicus [23] = test: Cz in Sprague-Dawley rat at 50 mg/kg, ip measured upto 4 hrs by UPLC-MS/MS analysis; assay type: ADME, organism-based; conditions: in vivo
[24] = Clearance in Sprague-Dawley rat at 50 mg/kg, iv measured upto 4 hrs by UPLC-MS/MS analysis; assay type: ADME, organism-based; conditions: in vivo
[25] = Apparent volume of distribution in Sprague-Dawley rat at 50 mg/kg, ip measured upto 4 hrs by UPLC-MS/MS analysis; assay type: ADME, organism-based; conditions: in vivo

Transient receptor potential cation channel subfamily V member 1 (Mus musculus), sequence (Q704Y3 whole entry): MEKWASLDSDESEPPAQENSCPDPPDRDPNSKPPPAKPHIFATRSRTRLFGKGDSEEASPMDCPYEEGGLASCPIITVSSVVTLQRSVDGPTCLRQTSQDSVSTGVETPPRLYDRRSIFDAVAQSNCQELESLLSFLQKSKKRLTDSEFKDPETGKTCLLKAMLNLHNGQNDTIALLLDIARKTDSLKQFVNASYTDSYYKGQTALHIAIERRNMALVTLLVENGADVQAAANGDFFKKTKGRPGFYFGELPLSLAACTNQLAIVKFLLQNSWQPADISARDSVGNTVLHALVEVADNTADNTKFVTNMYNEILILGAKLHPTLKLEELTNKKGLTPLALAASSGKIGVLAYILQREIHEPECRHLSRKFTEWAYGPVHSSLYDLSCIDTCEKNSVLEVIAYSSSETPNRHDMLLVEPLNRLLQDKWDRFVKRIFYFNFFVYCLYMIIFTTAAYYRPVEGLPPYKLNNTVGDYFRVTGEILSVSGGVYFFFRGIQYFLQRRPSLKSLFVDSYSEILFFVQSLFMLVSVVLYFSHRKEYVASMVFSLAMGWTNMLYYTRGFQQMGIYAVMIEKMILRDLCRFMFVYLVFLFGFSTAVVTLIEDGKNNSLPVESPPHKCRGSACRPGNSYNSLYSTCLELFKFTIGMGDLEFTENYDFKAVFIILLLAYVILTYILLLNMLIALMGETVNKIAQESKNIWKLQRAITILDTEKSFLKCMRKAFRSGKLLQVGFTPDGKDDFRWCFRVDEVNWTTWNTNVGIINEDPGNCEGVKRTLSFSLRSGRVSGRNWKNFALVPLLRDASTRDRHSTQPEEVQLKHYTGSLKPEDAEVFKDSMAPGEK

Compound: O=C(/C=C/c1ccc(O)c(O)c1)CCCCc1ccccc1
- inhibition (NIH3T3 [1]): Dose-dependent-effect; Compound Showed Superior Inhibition Effect Than Nintedanib
- MRT last at 4 h [2]: 31.2 min
- Vz [3]: 237.78 L/kg
- VRT(t) [4]: 0.75 hr2
- Activity (Mus musculus [5]): Active
- Activity [6]: Non-toxic
- Activity (Mus musculus [7]): Active
- Activity [8]: Dose-dependent-effect
- MRT last at 4 h [9]: 73.2 min
- AUMC [10]: 138.748 ug/L.hr
- AUMC [11]: 2122.825 ug/L.hr
- Activity (Rattus norvegicus [12]): 1.07
- Activity [13]: 31.2 g/L
- Activity (Rattus norvegicus [14]): 0.84
- inhibition (NIH3T3 [15]): Dose-dependent-effect; Compound Showed Superior Inhibition Effect Than Nintedanib
- AUC(0-t) at 4 h [16]: 1100 ng·h/mL
- Activity [17]: 33.2 g/L
- Activity [18]: 160.5 U/L
- AUC [19]: 1095.38 ng·h/mL
- Cz (Rattus norvegicus [20]): 2.54 µg/L
- Activity [21]: 2486.8 U/L
- Activity [22]: Active
- Cz (Rattus norvegicus [23]): 0.74 µg/L
- CL [24]: 125 mL/min/kg
- Vz [25]: 9.28 L/kg
